Data set [1] in a line: Toxicity (cytotoxic action) in human T lymphocytes. The format is cell-based. The following applies: cem t lymphocytes. The procedure: (§1) In-vitro HIV tests were carried out with the dinucleoside α-hydroxymethylarylphosphonates 1-3. As a test system human T lymphocytes (CEM/O) were used. The compounds were additionally tested in a thymidine kinase-deficient T-lymphocyte strain (CEM/TK^-). The CEM/O cells were infected both with HIV-1 and with HIV-2. Before the tests, it was ensured that the compounds to be tested were free of free nucleoside (max. 0.5% HPLC) .

The subject of data set [2] is HIV-2. The data set is described as follows: In-vitro anti HIV test, HIV-2, human T lymphocytes CEM/O. The format is cell-based, HIV-2 in human T lymphocytes (CEM/O). The following applies: Human immunodeficiency virus 2, T-lymphocyte, read-out: Antiviral activity EC50 CEM/O HIV-2. The method, then: as §1
Data set [3] deals with HIV-1. The data set is described as follows: In-vitro anti HIV test, HIV-1, human T lymphocytes CEM/O. The format is cell-based, HIV-1 in human T lymphocytes (CEM/O). The note with it: Human immunodeficiency virus 1, T-lymphocyte, read-out: Antiviral activity EC50 CEM/O HIV-1. The method, then:
as §1

The test system of data set [4] is HIV-2. The data set is described as follows: In-vitro anti HIV test, HIV-2, thymidine kinase-deficient T-lymphocyte strain CEM/TK^-. The format is cell-based, HIV-2 in human T lymphocytes (CEM/TK^-). The following applies: Human immunodeficiency virus 2, CEM-TK(-), read-out: Antiviral activity EC50 CEM/TK^- HIV-2. The method, then:
as §1

The structures appear in SMILES notation. Values after ≈ are worked out from the molar mass of the structure shown. Read-outs that look alike come from different tables or passages of the source.

Broadly, the CC50 is the concentration that lowers cell viability or growth by half. `Cc1cn([C@H]2C=C[C@@H](COP(=O)(OC[C@@H]3C=C[C@H](n4cc(C)c(=O)[nH]c4=O)O3)C(O)c3c(Cl)cccc3Cl)O2)c(=O)[nH]c1=O` (some centres unmarked) [Compound 2f, bis(5'-O-2',3'-dideoxy-2',3'-didehydrothymidine)hydroxy(2,6-dichlorophenyl)methylphosphonate]: the CC50 in data set [1] (read-out: Toxicity CC50) is more than 100 µg/mL. Besides, the EC50 in data set [2] (HIV-2, CEM/O cells) is 0.12 ± 0.06 µg/mL (≈ 0.179 µM); in data set [3] (HIV-1, CEM/O cells), 0.056 ± 0.034 µg/mL (≈ 0.0837 µM); in data set [4], more than 20 µg/mL.
The corresponding values for `Cc1cn([C@H]2CC[C@@H](COP(=O)(OC[C@@H]3CC[C@H](n4cc(C)c(=O)[nH]c4=O)O3)C(O)c3ccc(C#N)cc3)O2)c(=O)[nH]c1=O` (some centres unmarked) [Compound 1g, bis(5'-O-2',3'-dideoxythymidine) hydroxy(4-cyanophenyl)methylphosphonate] are more than 100 µg/mL, 7.7 ± 4.6 µg/mL (≈ 12.2 µM), 3.93 ± 3.1 µg/mL (≈ 6.24 µM) and more than 100 µg/mL.
For `COc1ccc(C(O)P(=O)(OC[C@@H]2CC[C@H](n3cc(C)c(=O)[nH]c3=O)O2)OC[C@@H]2CC[C@H](n3cc(C)c(=O)[nH]c3=O)O2)cc1` (some centres unmarked) [Compound 1b, bis(5'-O-2',3'-dideoxythymidine) hydroxy(4-methoxyphenyl)methylphosphonate], the CC50 in data set [1] (read-out: Toxicity CC50) was more than 20 µg/mL. Further, the EC50 in data set [2] (HIV-2, CEM/O cells) is 0.55 ± 0.07 µg/mL (≈ 0.867 µM); in data set [3] (HIV-1, CEM/O cells), 0.5 µg/mL (≈ 0.788 µM); in data set [4] it was more than 20 µg/mL.
With `Cc1cn([C@H]2C=C[C@@H](COP(=O)(OC[C@@H]3C=C[C@H](n4cc(C)c(=O)[nH]c4=O)O3)C(O)c3ccc(C#N)cc3)O2)c(=O)[nH]c1=O` (some centres unmarked) [Compound 2g, bis(5'-O-2',3'-dideoxy-2',3'-didehydrothymidine)hydroxy(4-cyanophenyl)methylphosphonate], in data set [1] (read-out: Toxicity CC50), the CC50 is more than 100 µg/mL. Further, the EC50 in data set [2] (HIV-2, CEM/O cells) is 0.33 ± 0.24 µg/mL (≈ 0.528 µM); in data set [3] (HIV-1, CEM/O cells), 0.091 ± 0.065 µg/mL (≈ 0.145 µM); in data set [4], more than 100 µg/mL.
`COc1ccc(C(O)P(=O)(OC[C@@H]2C=C[C@H](n3cc(C)c(=O)[nH]c3=O)O2)OC[C@@H]2C=C[C@H](n3cc(C)c(=O)[nH]c3=O)O2)cc1` (some centres unmarked) [Compound 2b, bis(5'-O-2',3'-dideoxy-2',3'-didehydrothymidine)hydroxy(4-methoxyphenyl)methylphosphonate]: in data set [1] (read-out: Toxicity CC50), the CC50 was more than 20 µg/mL. Moreover, the EC50 in data set [2] (HIV-2, CEM/O cells) is 0.12 ± 0.06 µg/mL (≈ 0.19 µM); in data set [3] (HIV-1, CEM/O cells), 0.1 ± 0.065 µg/mL (≈ 0.159 µM); in data set [4] it was more than 100 µg/mL.
On to `Cc1ccc(C(O)P(=O)(OC[C@@H]2C=C[C@H](n3cc(C)c(=O)[nH]c3=O)O2)OC[C@@H]2C=C[C@H](n3cc(C)c(=O)[nH]c3=O)O2)cc1` (some centres unmarked) [Compound 2c, bis(5'-O-2',3'-dideoxy-2',3'-didehydrothymidine)hydroxy(4-methylphenyl)methylphosphonate], for which, in data set [1] (read-out: Toxicity CC50), the CC50 is more than 20 µg/mL. Further, the EC50 in data set [2] (HIV-2, CEM/O cells) was 0.33 ± 0.24 µg/mL (≈ 0.537 µM); in data set [3] (HIV-1, CEM/O cells) it was 0.12 ± 0.064 µg/mL (≈ 0.195 µM); in data set [4], more than 100 µg/mL.
Take `Cc1cn([C@H]2CC[C@@H](COP(=O)(OC[C@@H]3CC[C@H](n4cc(C)c(=O)[nH]c4=O)O3)C(O)c3ccc(N(C)C)cc3)O2)c(=O)[nH]c1=O` (some centres unmarked) [Compound 1a, bis(5'-O-2',3'-dideoxythymidine) hydroxy(4-dimethylaminophenyl)methylphosphonate]: the CC50 in data set [1] (read-out: Toxicity CC50) was more than 100 µg/mL. The EC50 in data set [2] (HIV-2, CEM/O cells) is 7 ± 4.24 µg/mL (≈ 10.8 µM); in data set [3] (HIV-1, CEM/O cells) it was 3.25 ± 1.06 µg/mL (≈ 5.02 µM); in data set [4], more than 100 µg/mL.
On to `Cc1cn([C@H]2C=C[C@@H](COP(=O)(OC[C@@H]3C=C[C@H](n4cc(C)c(=O)[nH]c4=O)O3)C(O)c3ccc([N+](=O)[O-])cc3[N+](=O)[O-])O2)c(=O)[nH]c1=O` (some centres unmarked) [Compound 2j, bis(5'-O-2',3'-dideoxy-2',3'-didehydrothymidine)hydroxy(2,4-dinitrophenyl)methylphosphonate], for which the CC50 in data set [1] is more than 100 µg/mL. For the same compound, the EC50 is 0.33 ± 0.24 µg/mL (≈ 0.478 µM) in data set [2] (HIV-2, CEM/O cells); 0.16 µg/mL (≈ 0.232 µM) in data set [3] (HIV-1, CEM/O cells); more than 100 µg/mL in data set [4].
Take `Cc1cn([C@H]2CC[C@@H](COP(=O)(OC[C@@H]3CC[C@H](n4cc(C)c(=O)[nH]c4=O)O3)C(O)c3ccccc3)O2)c(=O)[nH]c1=O` (some centres unmarked) [Compound 1d, bis(5'-O-2',3'-dideoxythymidine) hydroxy(phenyl)methylphosphonate]: the CC50 in data set [1] (read-out: Toxicity CC50) was more than 100 µg/mL. Also, the EC50 in data set [2] (HIV-2, CEM/O cells) is 13.3 ± 2.9 µg/mL (≈ 22 µM); in data set [3] (HIV-1, CEM/O cells), 2.93 ± 1.85 µg/mL (≈ 4.85 µM); in data set [4], more than 100 µg/mL.
`Cc1cn([C@H]2CC[C@@H](COP(=O)(OC[C@@H]3CC[C@H](n4cc(C)c(=O)[nH]c4=O)O3)C(O)c3c(Cl)cccc3Cl)O2)c(=O)[nH]c1=O` (some centres unmarked) [Compound 1f, bis(5'-O-2',3'-dideoxythymidine) hydroxy(2,6-dichlorophenyl)methylphosphonate]: in data set [1] (read-out: Toxicity CC50), the CC50 was more than 20 µg/mL. Moreover, the EC50 is 2 µg/mL (≈ 2.97 µM) in data set [2], 1.4 ± 0.85 µg/mL (≈ 2.08 µM) in data set [3] and more than 20 µg/mL in data set [4].
For the compound `Cc1ccc(C(O)P(=O)(OC[C@@H]2CC[C@H](n3cc(C)c(=O)[nH]c3=O)O2)OC[C@@H]2CC[C@H](n3cc(C)c(=O)[nH]c3=O)O2)cc1` (some centres unmarked) [Compound 1c, bis(5'-O-2',3'-dideoxythymidine) hydroxy(4-methylphenyl)methylphosphonate], the CC50 in data set [1] (read-out: Toxicity CC50) is more than 100 µg/mL. For the same compound, the EC50 in data set [2] (HIV-2, CEM/O cells) was 10 µg/mL (≈ 16.2 µM); in data set [3] (HIV-1, CEM/O cells), 3.25 ± 1.06 µg/mL (≈ 5.25 µM); in data set [4], more than 100 µg/mL.
Consider `Cc1cn([C@H]2CC[C@@H](COP(=O)(OC[C@@H]3CC[C@H](n4cc(C)c(=O)[nH]c4=O)O3)C(O)c3ccc([N+](=O)[O-])cc3)O2)c(=O)[nH]c1=O` (some centres unmarked) [Compound 1h, bis(5'-O-2',3'-dideoxythymidine) hydroxy(4-nitrophenyl)methylphosphonate], for which the CC50 in data set [1] (read-out: Toxicity CC50) was more than 100 µg/mL. In addition, the EC50 was 3 ± 1.41 µg/mL (≈ 4.62 µM) in data set [2] (HIV-2, CEM/O cells); 2.25 ± 0.35 µg/mL (≈ 3.46 µM) in data set [3] (HIV-1, CEM/O cells); more than 100 µg/mL in data set [4].
With `Cc1cn([C@H]2CC[C@@H](COP(=O)(OC[C@@H]3CC[C@H](n4cc(C)c(=O)[nH]c4=O)O3)C(O)c3ccc([N+](=O)[O-])cc3[N+](=O)[O-])O2)c(=O)[nH]c1=O` (some centres unmarked) [Compound 1j, bis(5'-O-2',3'-dideoxythymidine) hydroxy(2,4-dinitrophenyl)methylphosphonate], the CC50 in data set [1] was more than 100 µg/mL. In addition, the EC50 in data set [2] (HIV-2, CEM/O cells) is 3.5 ± 0.71 µg/mL (≈ 5.04 µM); in data set [3] (HIV-1, CEM/O cells) it was 2 µg/mL (≈ 2.88 µM); in data set [4], more than 100 µg/mL.
With `Cc1cn([C@H]2C=C[C@@H](COP(=O)(OC[C@@H]3C=C[C@H](n4cc(C)c(=O)[nH]c4=O)O3)C(O)c3ccccc3)O2)c(=O)[nH]c1=O` (some centres unmarked) [Compound 2d, bis(5'-O-2',3'-dideoxy-2',3'-didehydrothymidine)hydroxy(phenyl)methylphosphonate], in data set [1] (read-out: Toxicity CC50), the CC50 is more than 100 µg/mL. Also, the EC50 in data set [2] (HIV-2, CEM/O cells) was 0.19 ± 0.19 µg/mL (≈ 0.316 µM); in data set [3] (HIV-1, CEM/O cells) it was 0.16 µg/mL (≈ 0.266 µM); in data set [4], more than 100 µg/mL.
`Cc1cn([C@H]2C=C[C@@H](COP(=O)(OC[C@@H]3C=C[C@H](n4cc(C)c(=O)[nH]c4=O)O3)C(O)c3ccc(Cl)cc3)O2)c(=O)[nH]c1=O` (some centres unmarked) [Compound 2e, bis(5'-O-2',3'-dideoxy-2',3'-didehydrothymidine)hydroxy(4-chlorophenyl)methylphosphonate]: the half-maximal cytotoxic concentration (CC50) in data set [1] (read-out: Toxicity CC50) was more than 100 µg/mL. Also, the EC50 in data set [2] (HIV-2, CEM/O cells) is 0.12 ± 0.06 µg/mL (≈ 0.189 µM); in data set [3] (HIV-1, CEM/O cells), 0.1 ± 0.05 µg/mL (≈ 0.157 µM); in data set [4] it was more than 100 µg/mL.
As to `Cc1cn([C@H]2C=C[C@@H](COP(=O)(OC[C@@H]3C=C[C@H](n4cc(C)c(=O)[nH]c4=O)O3)C(O)c3ccc([N+](=O)[O-])cc3)O2)c(=O)[nH]c1=O` (some centres unmarked) [Compound 2h, bis(5'-O-2',3'-dideoxy-2',3'-didehydrothymidine)hydroxy(4-nitrophenyl)methylphosphonate], in data set [1] (read-out: Toxicity CC50), the CC50 is more than 100 µg/mL. Also, the EC50 in data set [2] (HIV-2, CEM/O cells) was 0.12 ± 0.06 µg/mL (≈ 0.186 µM); in data set [3] (HIV-1, CEM/O cells) it was 0.066 ± 0.048 µg/mL (≈ 0.102 µM); in data set [4] it was more than 100 µg/mL.
Consider `Cc1cn([C@H]2CC[C@@H](COP(=O)(OC[C@@H]3CC[C@H](n4cc(C)c(=O)[nH]c4=O)O3)C(O)c3ccc(Cl)cc3)O2)c(=O)[nH]c1=O` (some centres unmarked) [Compound 1e, bis(5'-O-2',3'-dideoxythymidine) hydroxy(4-chlorophenyl)methylphosphonate], for which the CC50 in data set [1] (read-out: Toxicity CC50) is more than 100 µg/mL. Besides, the EC50 in data set [2] (HIV-2, CEM/O cells) was 4 µg/mL (≈ 6.26 µM); in data set [3] (HIV-1, CEM/O cells), 4 µg/mL (≈ 6.26 µM); in data set [4] it was more than 100 µg/mL.

For the origin of these results see US6028182A, “Methylphosphonic acid esters, processes for their preparation, and their use” (Hoechst Aktiengesellschaft, priority 1993, dated 2000).
